Measured values reported in ChEMBL document CHEMBL3045238, “Structure-Activity Studies of Insecticidal 2-Methoxy-1, 3, 2-oxazaphospholidine 2-Sulfides against Musca domestica and Tribolium castaneum” (J Pestic Sci, 1990).

Each compound was assayed on Tribolium castaneum (assay: Insecticidal activity against fourth-instar Tribolium castaneum (red flour beetle) assessed as inhibition of larval weight gain at 30 degC measured after 2 days by feeding method).
Assay type: functional

| Structure (SMILES) | I50 [ppm] |
| --- | --- |
| COP1(=S)NCC(C)(c2ccccc2)O1 (centres undefined) | >100 |
| COP1(=S)NCC(C)(c2ccccc2F)O1 (centres undefined) | >100 |
| COP1(=S)NCC(c2cc(F)cc(F)c2)O1 (centres undefined) | >100 |
| COP1(=S)NCC(c2ccc(C(C)C)cc2)O1 (centres undefined) | 5.2 |
| COP1(=S)NCC(c2c(F)cccc2F)O1 (centres undefined) | >100 |
| COP1(=S)NCC2(CC3CCC2(C)C3(C)C)O1 (centres undefined) | >100 |
| COP1(=S)NCC(c2cccc(F)c2F)O1 (centres undefined) | >100 |
| COP1(=S)NCC(c2ccc(Cl)c(Cl)c2)O1 (centres undefined) | >100 |
| COP1(=S)NCC(c2ccccc2C)O1 (centres undefined) | 35 |
| COP1(=S)NCC(C2CCCCC2)O1 (centres undefined) | >100 |
| COP1(=S)NCC(c2ccc(C(F)(F)F)cc2)O1 (centres undefined) | >100 |
| COP1(=S)NCC(c2c(Cl)cccc2Cl)O1 (centres undefined) | 49 |
| COP1(=S)NCC(c2cccc(Cl)c2)O1 (centres undefined) | >100 |
| COP1(=S)NCC(c2ccc(Cl)cc2Cl)O1 (centres undefined) | >100 |
| COP1(=S)NCC(c2ccc(Br)cc2)O1 (centres undefined) | >100 |
| COP1(=S)NCC2(CCCc3ccccc32)O1 (centres undefined) | >100 |
| COP1(=S)NCC(c2ccccc2)O1 (centres undefined) | 43 |

| Structure (SMILES) | I50 [ppm] |
| --- | --- |
| COc1cc(C2CNP(=S)(OC)O2)cc(OC)c1OC (centres undefined) | >100 |
| COP1(=S)NCC2(Cc3ccccc3C2)O1 (centres undefined) | >100 |
| COP(=S)(OC)Oc1ccc([N+](=O)[O-])c(C)c1 [FENITROTHION] | 4.7 |
| COP1(=S)NCC2(CCCC(C)C2)O1 (centres undefined) | >100 |
| COP1(=S)NCC(Cc2ccccc2)O1 (centres undefined) | >100 |
| COP1(=S)NCC(c2ccccc2C(F)(F)F)O1 (centres undefined) | >100 |
| COP1(=S)NCC(c2cccc(Oc3ccccc3)c2)O1 (centres undefined) | >100 |
| COP1(=S)NCC(C2CC=CCC2)O1 (centres undefined) | >100 |
| COc1cc(OC)cc(C2CNP(=S)(OC)O2)c1 (centres undefined) | >100 |
| COP1(=S)NCC(c2ccc3ccccc3c2)O1 (centres undefined) | 11 |
| COP1(=S)NCC(c2cccc([N+](=O)[O-])c2)O1 (centres undefined) | >100 |
| COP1(=S)NCC(CCc2ccccc2)O1 (centres undefined) | >100 |
| CCc1ccc(C2CNP(=S)(OC)O2)cc1 (centres undefined) | 3.7 |
| COc1ccc(C2CNP(=S)(OC)O2)cc1OC (centres undefined) | >100 |
| COP1(=S)NCC(c2ccc(Cl)cc2)O1 (centres undefined) | >100 |
| COP1(=S)NCC(c2ccc(C)cc2)O1 (centres undefined) | 5.5 |

These compounds were tested on Musca domestica (assay: Insecticidal activity against female Musca domestica (house fly) assessed as mortality compound topically applied to the abdomen measured per fly after 24 hr).
Assay type: functional

| Structure (SMILES) | LD50 [µg] | pLD50 |
| --- | --- | --- |
| COP1(=S)NCC(C)(c2ccccc2)O1 (centres undefined) | 0.88 |  |
| COP1(=S)NCC(C)(c2ccccc2F)O1 (centres undefined) | 1.26 |  |
| COP1(=S)NCC(c2cc(F)cc(F)c2)O1 (centres undefined) | >1 |  |
| COP1(=S)NCC(c2ccc(C(C)C)cc2)O1 (centres undefined) | 0.42 | 2.81 |
| COP1(=S)NCC(c2c(F)cccc2F)O1 (centres undefined) | 0.82 |  |
| COP1(=S)NCC2(CC3CCC2(C)C3(C)C)O1 (centres undefined) | >1 |  |
| COP1(=S)NCC(c2cccc(F)c2F)O1 (centres undefined) | >1 |  |
| COP1(=S)NCC(c2ccc(Cl)c(Cl)c2)O1 (centres undefined) | >1 |  |
| COP1(=S)NCC(c2ccccc2C)O1 (centres undefined) | 0.27 | 2.95 |
| COP1(=S)NCC(C2CCCCC2)O1 (centres undefined) | >1 |  |
| COP1(=S)NCC(c2ccc(C(F)(F)F)cc2)O1 (centres undefined) | >1 |  |
| COP1(=S)NCC(c2c(Cl)cccc2Cl)O1 (centres undefined) | >1 |  |
| COP1(=S)NCC(c2cccc(Cl)c2)O1 (centres undefined) | 0.24 | 3.04 |
| COP1(=S)NCC(c2ccc(Cl)cc2Cl)O1 (centres undefined) | 0.8 |  |
| COP1(=S)NCC(c2ccc(Br)cc2)O1 (centres undefined) | 0.21 | 3.13 |
| COP1(=S)NCC2(CCCc3ccccc32)O1 (centres undefined) | >1 |  |
| COP1(=S)NCC(c2ccccc2)O1 (centres undefined) | 0.035 | 3.82 |

| Structure (SMILES) | LD50 [µg] | pLD50 |
| --- | --- | --- |
| COc1cc(C2CNP(=S)(OC)O2)cc(OC)c1OC (centres undefined) | >1 |  |
| COP1(=S)NCC2(Cc3ccccc3C2)O1 (centres undefined) | >1 |  |
| COP(=S)(OC)Oc1ccc([N+](=O)[O-])c(C)c1 [FENITROTHION] | 0.051 |  |
| COP1(=S)NCC2(CCCC(C)C2)O1 (centres undefined) | >1 |  |
| COP1(=S)NCC(Cc2ccccc2)O1 (centres undefined) | >1 |  |
| COP1(=S)NCC(c2ccccc2C(F)(F)F)O1 (centres undefined) | >1 |  |
| COP1(=S)NCC(c2cccc(Oc3ccccc3)c2)O1 (centres undefined) | >1 |  |
| COP1(=S)NCC(C2CC=CCC2)O1 (centres undefined) | >1 |  |
| COc1cc(OC)cc(C2CNP(=S)(OC)O2)c1 (centres undefined) | 1.12 |  |
| COP1(=S)NCC(c2ccc3ccccc3c2)O1 (centres undefined) | 0.64 |  |
| COP1(=S)NCC(c2cccc([N+](=O)[O-])c2)O1 (centres undefined) | >1 |  |
| COP1(=S)NCC(CCc2ccccc2)O1 (centres undefined) | >1 |  |
| CCc1ccc(C2CNP(=S)(OC)O2)cc1 (centres undefined) | 0.22 | 3.07 |
| COc1ccc(C2CNP(=S)(OC)O2)cc1OC (centres undefined) | >1 |  |
| COP1(=S)NCC(c2ccc(Cl)cc2)O1 (centres undefined) | 0.16 | 3.22 |
| COP1(=S)NCC(c2ccc(C)cc2)O1 (centres undefined) | 0.084 | 3.46 |
